Laboratory results taken from patent US10168342B2, “Lipid probes and uses thereof” (THE SCRIPPS RESEARCH INSTITUTE, priority 2015, dated 2019).

What was measured:
Assay type in all cases: cell-based
[1] = biological target: T1, AEA-DA-modified peptides in Neuro2a cells (Mus musculus, UniProt P42125); assay: isoTOP-ABPP mapping of AEA-DA-modified peptides in Neuro2a cells; settings: AEA-DA-modified peptide ECI1 P42125 276-284, SEQ ID NO 34; probe 100 μM, 12 replicates
T1 construct: endogenous in cells; host or cells: Neuro2a
T1 sequence (P42125 29-289): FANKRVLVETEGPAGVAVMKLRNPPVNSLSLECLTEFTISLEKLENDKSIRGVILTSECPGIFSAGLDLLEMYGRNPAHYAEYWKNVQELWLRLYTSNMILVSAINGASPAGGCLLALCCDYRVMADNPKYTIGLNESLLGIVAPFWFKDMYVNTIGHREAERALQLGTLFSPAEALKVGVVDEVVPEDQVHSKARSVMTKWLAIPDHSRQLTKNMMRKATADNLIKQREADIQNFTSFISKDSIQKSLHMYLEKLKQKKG

[2] = biological target: T2, AEA-DA-modified peptides in Neuro2a cells (Mus musculus, UniProt Q8K411); assay: as above; settings: AEA-DA-modified peptide PITRM1 Q8K411 364-386, SEQ ID NO 87; probe 100 μM, 12 replicates
T2 construct: endogenous in cells; host or cells: Neuro2a
T2 sequence (Q8K411 16-1036): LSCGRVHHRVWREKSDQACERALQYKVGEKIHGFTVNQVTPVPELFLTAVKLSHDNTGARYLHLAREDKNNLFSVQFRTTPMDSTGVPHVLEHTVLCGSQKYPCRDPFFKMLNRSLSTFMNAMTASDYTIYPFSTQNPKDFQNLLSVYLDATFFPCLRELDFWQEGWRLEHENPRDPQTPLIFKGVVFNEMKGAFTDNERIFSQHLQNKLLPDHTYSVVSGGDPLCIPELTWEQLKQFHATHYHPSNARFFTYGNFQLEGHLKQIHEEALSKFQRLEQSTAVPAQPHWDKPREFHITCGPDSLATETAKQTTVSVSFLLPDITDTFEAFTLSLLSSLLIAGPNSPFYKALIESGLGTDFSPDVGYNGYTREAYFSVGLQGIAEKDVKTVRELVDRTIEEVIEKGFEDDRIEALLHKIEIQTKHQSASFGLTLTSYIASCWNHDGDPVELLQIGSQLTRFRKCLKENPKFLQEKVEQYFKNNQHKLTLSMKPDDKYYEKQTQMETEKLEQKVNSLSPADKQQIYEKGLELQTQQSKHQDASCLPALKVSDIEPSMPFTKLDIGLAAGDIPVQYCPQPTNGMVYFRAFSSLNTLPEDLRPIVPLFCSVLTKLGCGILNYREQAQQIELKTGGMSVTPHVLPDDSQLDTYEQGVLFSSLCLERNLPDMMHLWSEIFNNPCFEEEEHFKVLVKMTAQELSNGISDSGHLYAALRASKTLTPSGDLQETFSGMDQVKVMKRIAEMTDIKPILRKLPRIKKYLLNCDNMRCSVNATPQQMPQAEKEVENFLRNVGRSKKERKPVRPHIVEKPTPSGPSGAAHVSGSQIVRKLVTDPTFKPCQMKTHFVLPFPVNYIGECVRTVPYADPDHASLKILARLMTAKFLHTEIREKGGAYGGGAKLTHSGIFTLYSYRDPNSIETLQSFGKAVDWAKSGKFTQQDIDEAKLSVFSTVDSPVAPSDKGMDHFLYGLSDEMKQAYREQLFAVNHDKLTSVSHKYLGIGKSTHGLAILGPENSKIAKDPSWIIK

[3] = biological target: T3, lipid-binding proteins in A549 cells (Homo sapiens, UniProt P45880); assay: SILAC MS mapping of UV-dependent lipid probe targets in A549 cells; settings: AEA-DA probe vs NoUV
T3 construct: endogenous in cells; host or cells: A549 (PMA-stimulated for the PTGS2 experiments)
T3 sequence (P45880 whole entry): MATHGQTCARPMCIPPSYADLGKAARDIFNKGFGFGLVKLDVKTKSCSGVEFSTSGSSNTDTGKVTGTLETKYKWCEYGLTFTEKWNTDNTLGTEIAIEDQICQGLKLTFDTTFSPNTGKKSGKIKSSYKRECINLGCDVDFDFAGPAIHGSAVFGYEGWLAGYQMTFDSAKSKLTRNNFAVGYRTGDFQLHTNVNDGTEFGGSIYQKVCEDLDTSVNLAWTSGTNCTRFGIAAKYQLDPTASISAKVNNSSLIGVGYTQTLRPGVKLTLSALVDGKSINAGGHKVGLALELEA

[4] = biological target: T4, lipid-binding proteins in A549 cells (Homo sapiens, UniProt O95470); assay: as above; settings: AEA-DA probe vs NoUV
T4 construct: endogenous in cells; host or cells: A549 (PMA-stimulated for the PTGS2 experiments)

[5] = biological target: T5, lipid-binding proteins in A549 cells (Homo sapiens, UniProt P30519); assay: as above; settings: AEA-DA probe vs NoUV
T5 construct: endogenous in cells; host or cells: A549 (PMA-stimulated for the PTGS2 experiments)
T5 sequence (P30519 whole entry): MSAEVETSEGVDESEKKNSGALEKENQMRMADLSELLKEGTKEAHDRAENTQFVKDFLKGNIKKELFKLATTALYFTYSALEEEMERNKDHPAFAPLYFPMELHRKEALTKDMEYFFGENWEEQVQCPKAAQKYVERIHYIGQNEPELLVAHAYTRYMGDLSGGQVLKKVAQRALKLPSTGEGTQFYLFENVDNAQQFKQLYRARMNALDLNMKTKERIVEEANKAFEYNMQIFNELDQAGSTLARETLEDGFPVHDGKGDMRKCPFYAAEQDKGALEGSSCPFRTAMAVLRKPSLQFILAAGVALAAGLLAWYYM

[6] = biological target: T6, lipid-binding proteins in A549 cells (Homo sapiens, UniProt Q9NS69); assay: as above; settings: AEA-DA probe vs NoUV
T6 construct: endogenous in cells; host or cells: A549 (PMA-stimulated for the PTGS2 experiments)
T6 sequence (Q9NS69 whole entry): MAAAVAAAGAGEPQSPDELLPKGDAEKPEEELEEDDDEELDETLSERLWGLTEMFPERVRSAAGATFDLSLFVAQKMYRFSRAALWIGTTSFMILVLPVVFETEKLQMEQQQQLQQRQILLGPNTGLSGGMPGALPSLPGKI

[7] = biological target: T7, lipid-binding proteins in A549 cells (Homo sapiens, UniProt O15173); assay: as above; settings: AEA-DA probe vs NoUV
T7 construct: endogenous in cells; host or cells: A549 (PMA-stimulated for the PTGS2 experiments)
T7 sequence (O15173 whole entry): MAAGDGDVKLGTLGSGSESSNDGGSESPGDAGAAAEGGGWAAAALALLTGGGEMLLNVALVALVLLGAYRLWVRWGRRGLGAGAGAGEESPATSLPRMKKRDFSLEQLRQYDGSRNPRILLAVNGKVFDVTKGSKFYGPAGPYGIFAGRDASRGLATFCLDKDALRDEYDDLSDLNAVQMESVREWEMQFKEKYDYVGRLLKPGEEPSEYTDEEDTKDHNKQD

[8] = biological target: T8, lipid-binding proteins in A549 cells (Homo sapiens, UniProt Q53GQ0); assay: as above; settings: AEA-DA probe vs NoUV
T8 construct: endogenous in cells; host or cells: A549 (PMA-stimulated for the PTGS2 experiments)
T8 sequence (Q53GQ0 whole entry): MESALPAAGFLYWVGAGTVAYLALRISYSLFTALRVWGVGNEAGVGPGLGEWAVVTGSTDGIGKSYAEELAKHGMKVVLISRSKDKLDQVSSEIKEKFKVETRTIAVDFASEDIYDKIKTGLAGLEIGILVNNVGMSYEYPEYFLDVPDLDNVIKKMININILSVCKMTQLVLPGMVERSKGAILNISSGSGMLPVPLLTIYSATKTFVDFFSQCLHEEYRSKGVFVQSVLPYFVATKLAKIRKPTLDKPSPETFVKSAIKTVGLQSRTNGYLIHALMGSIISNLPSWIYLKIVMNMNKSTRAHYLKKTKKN

[9] = biological target: T9, lipid-binding proteins in A549 cells (Homo sapiens, UniProt Q14534); assay: as above; settings: AEA-DA probe vs NoUV
T9 construct: endogenous in cells; host or cells: A549 (PMA-stimulated for the PTGS2 experiments)

[10] = biological target: T10, lipid-binding proteins in A549 cells (Homo sapiens, UniProt Q9H4I3); assay: as above; settings: AEA-DA probe vs NoUV
T10 construct: endogenous in cells; host or cells: A549 (PMA-stimulated for the PTGS2 experiments)
T10 sequence (Q9H4I3 whole entry): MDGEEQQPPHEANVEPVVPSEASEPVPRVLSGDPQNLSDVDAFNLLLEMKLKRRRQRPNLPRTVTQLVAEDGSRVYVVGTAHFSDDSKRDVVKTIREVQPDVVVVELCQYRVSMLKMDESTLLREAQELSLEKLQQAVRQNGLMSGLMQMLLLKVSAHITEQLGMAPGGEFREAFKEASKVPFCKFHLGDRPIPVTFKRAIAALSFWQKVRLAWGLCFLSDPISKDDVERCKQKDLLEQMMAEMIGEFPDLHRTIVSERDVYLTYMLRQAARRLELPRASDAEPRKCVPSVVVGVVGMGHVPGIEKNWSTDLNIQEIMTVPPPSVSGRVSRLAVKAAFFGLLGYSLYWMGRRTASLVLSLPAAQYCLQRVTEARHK

[11] = biological target: T11, lipid-binding proteins in A549 cells (Homo sapiens, UniProt Q86XL3); assay: as above; settings: AEA-DA probe vs NoUV
T11 construct: endogenous in cells; host or cells: A549 (PMA-stimulated for the PTGS2 experiments)
T11 sequence (Q86XL3 whole entry): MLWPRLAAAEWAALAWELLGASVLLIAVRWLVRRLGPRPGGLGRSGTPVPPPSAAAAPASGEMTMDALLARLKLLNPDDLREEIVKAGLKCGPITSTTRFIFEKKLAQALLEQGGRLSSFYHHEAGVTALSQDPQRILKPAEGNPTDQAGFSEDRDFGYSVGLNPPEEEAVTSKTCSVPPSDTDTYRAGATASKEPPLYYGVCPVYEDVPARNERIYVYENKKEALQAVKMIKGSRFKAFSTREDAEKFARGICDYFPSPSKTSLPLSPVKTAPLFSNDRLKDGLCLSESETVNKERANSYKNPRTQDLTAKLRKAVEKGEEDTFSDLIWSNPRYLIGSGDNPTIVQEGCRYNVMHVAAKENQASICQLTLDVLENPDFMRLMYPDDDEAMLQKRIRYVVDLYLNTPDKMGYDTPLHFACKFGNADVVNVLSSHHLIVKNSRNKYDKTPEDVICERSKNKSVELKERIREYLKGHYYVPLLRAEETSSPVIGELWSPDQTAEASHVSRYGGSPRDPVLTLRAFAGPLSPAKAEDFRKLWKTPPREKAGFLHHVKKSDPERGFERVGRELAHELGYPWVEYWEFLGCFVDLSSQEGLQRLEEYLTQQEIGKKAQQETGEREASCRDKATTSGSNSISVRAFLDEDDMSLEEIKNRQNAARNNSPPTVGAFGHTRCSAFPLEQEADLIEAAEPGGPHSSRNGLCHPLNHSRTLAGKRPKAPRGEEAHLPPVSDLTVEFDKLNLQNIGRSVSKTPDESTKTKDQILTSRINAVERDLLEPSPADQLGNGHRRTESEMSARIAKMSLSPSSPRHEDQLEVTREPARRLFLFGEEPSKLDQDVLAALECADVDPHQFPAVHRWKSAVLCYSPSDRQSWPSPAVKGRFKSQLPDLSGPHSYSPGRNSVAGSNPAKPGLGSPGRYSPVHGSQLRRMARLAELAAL

[12] = biological target: T12, lipid-binding proteins in A549 cells (Homo sapiens, UniProt P07602); assay: as above; settings: AEA-DA probe vs NoUV
T12 construct: endogenous in cells; host or cells: A549 (PMA-stimulated for the PTGS2 experiments)
T12 sequence (P07602 60-524): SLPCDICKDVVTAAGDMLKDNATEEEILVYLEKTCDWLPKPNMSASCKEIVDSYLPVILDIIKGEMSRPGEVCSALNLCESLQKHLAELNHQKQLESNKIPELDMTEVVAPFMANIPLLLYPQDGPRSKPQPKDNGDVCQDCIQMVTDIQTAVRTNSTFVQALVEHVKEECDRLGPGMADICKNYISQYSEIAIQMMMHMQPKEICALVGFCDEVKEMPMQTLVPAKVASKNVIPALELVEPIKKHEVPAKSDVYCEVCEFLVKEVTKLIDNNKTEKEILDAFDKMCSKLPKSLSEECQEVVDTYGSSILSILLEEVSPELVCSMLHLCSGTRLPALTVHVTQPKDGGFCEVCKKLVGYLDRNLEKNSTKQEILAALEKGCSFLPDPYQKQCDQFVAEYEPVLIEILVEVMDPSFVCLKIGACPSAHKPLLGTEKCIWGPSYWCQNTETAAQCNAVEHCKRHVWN

[13] = biological target: T13, lipid-binding proteins in A549 cells (Homo sapiens, UniProt Q9HAW7); assay: as above; settings: AEA-DA probe vs NoUV
T13 construct: endogenous in cells; host or cells: A549 (PMA-stimulated for the PTGS2 experiments)
T13 sequence (Q9HAW7 26-530): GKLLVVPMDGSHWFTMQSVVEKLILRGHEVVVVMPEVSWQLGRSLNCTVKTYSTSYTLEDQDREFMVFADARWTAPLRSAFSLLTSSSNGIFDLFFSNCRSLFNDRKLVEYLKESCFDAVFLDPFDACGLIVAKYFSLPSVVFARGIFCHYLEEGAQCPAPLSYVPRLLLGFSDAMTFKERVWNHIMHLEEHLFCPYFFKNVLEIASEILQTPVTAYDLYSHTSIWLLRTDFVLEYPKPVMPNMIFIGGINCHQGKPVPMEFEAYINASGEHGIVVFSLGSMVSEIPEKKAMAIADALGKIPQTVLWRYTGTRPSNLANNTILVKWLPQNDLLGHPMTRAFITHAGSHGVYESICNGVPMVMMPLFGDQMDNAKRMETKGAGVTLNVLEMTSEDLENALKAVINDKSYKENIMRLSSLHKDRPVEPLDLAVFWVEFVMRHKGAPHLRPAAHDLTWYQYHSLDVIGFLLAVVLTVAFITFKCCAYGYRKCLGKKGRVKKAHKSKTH

[14] = biological target: T14, lipid-binding proteins in A549 cells (Homo sapiens, UniProt P67812); assay: as above; settings: AEA-DA probe vs NoUV
T14 construct: endogenous in cells; host or cells: A549 (PMA-stimulated for the PTGS2 experiments)

[15] = biological target: T15, lipid-binding proteins in A549 cells (Homo sapiens, UniProt P21796); assay: as above; settings: AEA-DA probe vs NoUV
T15 construct: endogenous in cells; host or cells: A549 (PMA-stimulated for the PTGS2 experiments)

In the case of `C#CCCCC1(CC/C=C\C/C=C\C/C=C\CCCC(=O)NCCO)N=N1` [AEA-DA, (5Z,8Z,11Z)-N-(2-hydroxyethyl)-14-(3-(pent-4-yn-1-yl)-3H-diazirin-3-yl)tetradeca-5,8,11-trienamide], the Times observed [1] is reported as 2, the Times observed [2] is reported as 2 and the “SILAC ratio, VDAC2 (P45880)” value [3] is reported as 20.0. For the same compound, the “SILAC ratio, SGPL1 (O95470)” value [4] was 20.0, the “SILAC ratio, HMOX2 (P30519)” value [5] was 20.0 and the “SILAC ratio, TOMM22 (Q9CPQ3)” value [6] was 20.0. The “SILAC ratio, PGRMC2 (Q80UU9)” value [7] was 20.0, the “SILAC ratio, HSD17B12 (Q53GQ0)” value [8] was 20.0 and the “SILAC ratio, SQLE (Q14534)” value [9] was 20.0. For the same compound, the “SILAC ratio, TRABD (Q99JY4)” value [10] was 20.0, the “SILAC ratio, ANKLE2 (Q86XL3)” value [11] was 20.0 and the “SILAC ratio, PSAP (P07602)” value [12] was 20.0. For the same compound, the “SILAC ratio, UGT1A7 (Q9HAW7)” value [13] was 20.0, the “SILAC ratio, SEC11A (P67812)” value [14] was 14.0 and the “SILAC ratio, VDAC1 (P21796)” value [15] was 20.0.
